Data: PubChem BioAssay (NCI)
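Step 1: Grow cells in 96-well plates. Step 2: Expose to compound for 48 hours at 5 concentrations. Step 3: Interpolate endpoints linearly; if unreached, use highest concentration. GI50: concentration for 50% inhibition of growth. At the TGI there is no net growth.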

How the values were obtained:
Assay in all cases: growth of human tumour cells (NCI), 48 h
[1] = tested on: CAKI-1 renal
[2] = tested on: SNB-19 CNS
[3] = tested on: SW-620 colon
[4] = tested on: EKVX NSCLC
[5] = tested on: MDA-MB-435
[6] = tested on: MDA-MB-468 breast
[7] = tested on: A498 renal
[8] = tested on: SF-268 CNS
[9] = tested on: HS 578T breast
[10] = tested on: OVCAR-3 ovarian
[11] = tested on: MALME-3M melanoma
[12] = tested on: SR leukemia
[13] = tested on: SK-MEL-5 melanoma
[14] = tested on: DU-145 prostate
[15] = tested on: HOP-92 NSCLC
[16] = tested on: ACHN renal
[17] = tested on: SF-295 CNS
[18] = tested on: NCI-H226 lung
[19] = tested on: BT-549 breast
[20] = tested on: OVCAR-5 ovarian
[21] = tested on: A549 NSCLC
[22] = tested on: UO-31 renal
[23] = tested on: NCI-H522 lung
[24] = tested on: NCI-H23 lung
[25] = tested on: RPMI-8226 leukemia
[26] = tested on: RXF 393 renal
[27] = tested on: NCI/ADR-RES ovarian
[28] = tested on: K-562 leukemia
[29] = tested on: IGROV1 ovarian
[30] = tested on: HOP-62 NSCLC
[31] = tested on: UACC-62 melanoma
[32] = tested on: SK-MEL-2 melanoma
[33] = tested on: CCRF-CEM leukemia
[34] = tested on: MDA-MB-231 breast
[35] = tested on: HCC-2998 colon
[36] = tested on: OVCAR-4 ovarian
[37] = tested on: OVCAR-8 ovarian
[38] = tested on: TK-10 renal
[39] = tested on: T-47D breast
[40] = tested on: HL-60(TB) leukemia
[41] = tested on: M14 melanoma
[42] = tested on: LOX IMVI melanoma
[43] = tested on: PC-3 prostate
[44] = tested on: 786-0 renal
[45] = tested on: HT29 colon
[46] = tested on: KM12 colon
[47] = tested on: MCF7 breast
[48] = tested on: NCI-H460 lung
[49] = tested on: UACC-257 melanoma
[50] = tested on: MOLT-4 leukemia
[51] = tested on: COLO 205 colon
[52] = tested on: SN12C renal
[53] = tested on: HCT-116 colon
[54] = tested on: HCT-15 colon
[55] = tested on: SK-OV-3 ovarian
[56] = tested on: SK-MEL-28 melanoma
[57] = tested on: U251 CNS
[58] = tested on: SF-539 CNS

Question: COc1ccc2[nH]cc(-c3nc(N)nnc3-c3cn(C)c4ncc(Br)cc34)c2c1 was tested. Which GI50 [1] did it give?
Answer: Its GI50 is 342 nM.

Question: And the TGI [1]?
Answer: The TGI was greater than 50800 nM.

Question: What about the GI50 [2] of the same molecule?
Answer: Its GI50 is 738 nM.

Question: And the TGI [2]?
Answer: Its TGI is greater than 100000 nM.

Question: What about the GI50 [3] of the same molecule?
Answer: The GI50 was 304 nM.

Question: And the TGI [3]?
Answer: Its TGI is greater than 62400 nM.

Question: What about the GI50 [4] of the same molecule?
Answer: Its GI50 is 864 nM.

Question: And the TGI [4]?
Answer: The TGI was greater than 72800 nM.

Question: What about the GI50 [5] of the same molecule?
Answer: The GI50 was 37.9 nM.

Question: What about the TGI [5] of the same molecule?
Answer: Its TGI is 205 nM.

Question: And the GI50 [6]?
Answer: The GI50 was 30.1 nM.

Question: What about the TGI [6] of the same molecule?
Answer: Its TGI is 631 nM.

Question: What about the GI50 [7] of the same molecule?
Answer: Its GI50 is 12600 nM.

Question: And the TGI [7]?
Answer: The TGI was 48100 nM.

Question: What about the GI50 [8] of the same molecule?
Answer: The GI50 was 1580 nM.

Question: What about the TGI [8] of the same molecule?
Answer: The TGI was 29600 nM.

Question: And the GI50 [9]?
Answer: The GI50 was 319 nM.

Question: What about the TGI [9] of the same molecule?
Answer: Its TGI is greater than 78300 nM.

Question: What about the GI50 [10] of the same molecule?
Answer: The GI50 was 250 nM.

Question: And the TGI [10]?
Answer: The TGI was 2660 nM.

Question: What about the GI50 [11] of the same molecule?
Answer: The GI50 was 335 nM.

Question: And the TGI [11]?
Answer: Its TGI is 23000 nM.

Question: And the GI50 [12]?
Answer: Its GI50 is 69.3 nM.

Question: What about the TGI [12] of the same molecule?
Answer: The TGI was greater than 100000 nM.

Question: What about the GI50 [13] of the same molecule?
Answer: The GI50 was 233 nM.

Question: What about the TGI [13] of the same molecule?
Answer: The TGI was 4050 nM.

Question: And the GI50 [14]?
Answer: Its GI50 is 446 nM.

Question: And the TGI [14]?
Answer: The TGI was greater than 49700 nM.

Question: What about the GI50 [15] of the same molecule?
Answer: Its GI50 is 572 nM.

Question: And the TGI [15]?
Answer: Its TGI is 14300 nM.

Question: And the GI50 [16]?
Answer: Its GI50 is 642 nM.

Question: What about the TGI [16] of the same molecule?
Answer: The TGI was 30500 nM.

Question: What about the GI50 [17] of the same molecule?
Answer: Its GI50 is 230 nM.

Question: And the TGI [17]?
Answer: The TGI was 10300 nM.

Question: And the GI50 [18]?
Answer: The GI50 was 676 nM.

Question: What about the TGI [18] of the same molecule?
Answer: The TGI was 9150 nM.

Question: What about the GI50 [19] of the same molecule?
Answer: The GI50 was 469 nM.

Question: What about the TGI [19] of the same molecule?
Answer: Its TGI is 7260 nM.

Question: And the GI50 [20]?
Answer: Its GI50 is 568 nM.

Question: And the TGI [20]?
Answer: Its TGI is greater than 100000 nM.

Question: And the GI50 [21]?
Answer: Its GI50 is 769 nM.

Question: What about the TGI [21] of the same molecule?
Answer: The TGI was greater than 95300 nM.

Question: What about the GI50 [22] of the same molecule?
Answer: Its GI50 is 717 nM.

Question: What about the TGI [22] of the same molecule?
Answer: Its TGI is 20300 nM.

Question: And the GI50 [23]?
Answer: The GI50 was 26.6 nM.

Question: And the TGI [23]?
Answer: Its TGI is 120 nM.

Question: And the GI50 [24]?
Answer: The GI50 was 461 nM.

Question: And the TGI [24]?
Answer: The TGI was 21700 nM.

Question: What about the GI50 [25] of the same molecule?
Answer: The GI50 was 430 nM.

Question: What about the TGI [25] of the same molecule?
Answer: Its TGI is greater than 40800 nM.

Question: What about the GI50 [26] of the same molecule?
Answer: The GI50 was 244 nM.

Question: And the TGI [26]?
Answer: Its TGI is 3890 nM.

Question: And the GI50 [27]?
Answer: The GI50 was 1450 nM.

Question: What about the TGI [27] of the same molecule?
Answer: Its TGI is 11200 nM.

Question: And the GI50 [28]?
Answer: The GI50 was 85 nM.

Question: What about the TGI [28] of the same molecule?
Answer: Its TGI is greater than 100000 nM.

Question: What about the GI50 [29] of the same molecule?
Answer: Its GI50 is 923 nM.

Question: And the TGI [29]?
Answer: The TGI was 25000 nM.

Question: What about the GI50 [30] of the same molecule?
Answer: The GI50 was 547 nM.

Question: What about the TGI [30] of the same molecule?
Answer: Its TGI is greater than 76900 nM.

Question: What about the GI50 [31] of the same molecule?
Answer: The GI50 was 184 nM.

Question: And the TGI [31]?
Answer: The TGI was 13300 nM.

Question: What about the GI50 [32] of the same molecule?
Answer: Its GI50 is 335 nM.

Question: What about the TGI [32] of the same molecule?
Answer: The TGI was 15400 nM.

Question: And the GI50 [33]?
Answer: The GI50 was 379 nM.

Question: And the TGI [33]?
Answer: The TGI was greater than 84300 nM.

Question: And the GI50 [34]?
Answer: The GI50 was 882 nM.

Question: What about the TGI [34] of the same molecule?
Answer: The TGI was 48600 nM.

Question: What about the GI50 [35] of the same molecule?
Answer: The GI50 was 910 nM.

Question: What about the TGI [35] of the same molecule?
Answer: Its TGI is 12900 nM.

Question: And the GI50 [36]?
Answer: The GI50 was 1440 nM.

Question: What about the TGI [36] of the same molecule?
Answer: The TGI was greater than 95500 nM.

Question: And the GI50 [37]?
Answer: The GI50 was 851 nM.

Question: What about the TGI [37] of the same molecule?
Answer: The TGI was 22900 nM.

Question: What about the GI50 [38] of the same molecule?
Answer: Its GI50 is 13100 nM.

Question: What about the TGI [38] of the same molecule?
Answer: Its TGI is 42400 nM.

Question: And the GI50 [39]?
Answer: The GI50 was 192 nM.

Question: What about the TGI [39] of the same molecule?
Answer: The TGI was 97200 nM.

Question: And the GI50 [40]?
Answer: Its GI50 is 168 nM.

Question: And the TGI [40]?
Answer: Its TGI is 3910 nM.

Question: And the GI50 [41]?
Answer: The GI50 was 292 nM.

Question: What about the TGI [41] of the same molecule?
Answer: The TGI was 30300 nM.

Question: And the GI50 [42]?
Answer: Its GI50 is 484 nM.

Question: What about the TGI [42] of the same molecule?
Answer: The TGI was 20100 nM.

Question: What about the GI50 [43] of the same molecule?
Answer: The GI50 was 311 nM.

Question: What about the TGI [43] of the same molecule?
Answer: The TGI was greater than 60100 nM.

Question: What about the GI50 [44] of the same molecule?
Answer: Its GI50 is 545 nM.

Question: And the TGI [44]?
Answer: Its TGI is 22200 nM.

Question: And the GI50 [45]?
Answer: Its GI50 is 317 nM.

Question: What about the TGI [45] of the same molecule?
Answer: The TGI was 2550 nM.

Question: What about the GI50 [46] of the same molecule?
Answer: Its GI50 is 241 nM.

Question: And the TGI [46]?
Answer: Its TGI is 17500 nM.

Question: What about the GI50 [47] of the same molecule?
Answer: The GI50 was 75.6 nM.

Question: And the TGI [47]?
Answer: The TGI was 25300 nM.

Question: And the GI50 [48]?
Answer: The GI50 was 382 nM.

Question: What about the TGI [48] of the same molecule?
Answer: Its TGI is 18000 nM.

Question: What about the GI50 [49] of the same molecule?
Answer: The GI50 was 724 nM.

Question: And the TGI [49]?
Answer: Its TGI is 27800 nM.

Question: And the GI50 [50]?
Answer: The GI50 was 524 nM.

Question: What about the TGI [50] of the same molecule?
Answer: The TGI was greater than 76700 nM.

Question: What about the GI50 [51] of the same molecule?
Answer: Its GI50 is 305 nM.

Question: What about the TGI [51] of the same molecule?
Answer: Its TGI is 1180 nM.

Question: What about the GI50 [52] of the same molecule?
Answer: The GI50 was 494 nM.

Question: And the TGI [52]?
Answer: Its TGI is 26400 nM.

Question: What about the GI50 [53] of the same molecule?
Answer: The GI50 was 373 nM.

Question: What about the TGI [53] of the same molecule?
Answer: The TGI was 13800 nM.

Question: And the GI50 [54]?
Answer: Its GI50 is 354 nM.

Question: What about the TGI [54] of the same molecule?
Answer: Its TGI is 21400 nM.

Question: And the GI50 [55]?
Answer: The GI50 was 482 nM.

Question: What about the TGI [55] of the same molecule?
Answer: Its TGI is 48100 nM.

Question: What about the GI50 [56] of the same molecule?
Answer: Its GI50 is 966 nM.

Question: What about the TGI [56] of the same molecule?
Answer: Its TGI is 34400 nM.

Question: What about the GI50 [57] of the same molecule?
Answer: The GI50 was 491 nM.

Question: And the TGI [57]?
Answer: Its TGI is 38600 nM.

Question: What about the GI50 [58] of the same molecule?
Answer: The GI50 was 255 nM.

Question: What about the TGI [58] of the same molecule?
Answer: Its TGI is 844 nM.
